Drawing on patent US11787785B2 (NOVARTIS AG, priority 2021, dated 2023), this text covers Dmax, remaining activity and DC50 for 25 compounds.

This test has as its target T1, WIZ protein (HiBit-WIZ fusion protein) (Homo sapiens, UniProt O95785+Q96SW2).
T1 construct: expressed in transfected cells
Description: Quantification of WIZ protein levels in HiBit tag fusion protein assay (WIZ HiBit assay in 293T cells). It counts as cell-based. The arrangement: remaining activity / Dmax: dose or concentration left out as unconfirmed. As to conditions: for Dmax at 25 µM / remaining activity at 25 µM / Dmax / remaining activity: HEK-293T; for Dmax at 25 µM: 100 − Amax; for Dmax at 25 µM / remaining activity at 25 µM: 293T cells; for Dmax at 25 µM / Dmax: read-out: % degradation of WIZ (100 − Amax); for remaining activity at 25 µM: DMSO-normalized, curve-fitted percentage of WIZ-HiBit remaining at 25 uM; for remaining activity at 25 µM / remaining activity: read-out: WIZ Amax; for DC50: WIZ HiBit assay in 293T cells, 10-point, 5-fold dose response, highest concentration 25 μM, about 18 hours, read-out: WIZ AC50. The method in brief:
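HiBit-tagged WIZ (N-terminal tag, HSVTK promoter) stably expressed single-copy in 293T cells; 10-point 1:5 compound series, top 25 μM, ~18 h at 37 °C. Lytic HiBit/LgBit luminescence read; Amax = curve-fitted % WIZ-HiBit remaining at 25 μM, DMSO normalized to 100%.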
On the technique in general: The HiBiT peptide binds its large partner to form an active luciferase.

T1 sequence (O95785 whole entry, the tested form may be a part): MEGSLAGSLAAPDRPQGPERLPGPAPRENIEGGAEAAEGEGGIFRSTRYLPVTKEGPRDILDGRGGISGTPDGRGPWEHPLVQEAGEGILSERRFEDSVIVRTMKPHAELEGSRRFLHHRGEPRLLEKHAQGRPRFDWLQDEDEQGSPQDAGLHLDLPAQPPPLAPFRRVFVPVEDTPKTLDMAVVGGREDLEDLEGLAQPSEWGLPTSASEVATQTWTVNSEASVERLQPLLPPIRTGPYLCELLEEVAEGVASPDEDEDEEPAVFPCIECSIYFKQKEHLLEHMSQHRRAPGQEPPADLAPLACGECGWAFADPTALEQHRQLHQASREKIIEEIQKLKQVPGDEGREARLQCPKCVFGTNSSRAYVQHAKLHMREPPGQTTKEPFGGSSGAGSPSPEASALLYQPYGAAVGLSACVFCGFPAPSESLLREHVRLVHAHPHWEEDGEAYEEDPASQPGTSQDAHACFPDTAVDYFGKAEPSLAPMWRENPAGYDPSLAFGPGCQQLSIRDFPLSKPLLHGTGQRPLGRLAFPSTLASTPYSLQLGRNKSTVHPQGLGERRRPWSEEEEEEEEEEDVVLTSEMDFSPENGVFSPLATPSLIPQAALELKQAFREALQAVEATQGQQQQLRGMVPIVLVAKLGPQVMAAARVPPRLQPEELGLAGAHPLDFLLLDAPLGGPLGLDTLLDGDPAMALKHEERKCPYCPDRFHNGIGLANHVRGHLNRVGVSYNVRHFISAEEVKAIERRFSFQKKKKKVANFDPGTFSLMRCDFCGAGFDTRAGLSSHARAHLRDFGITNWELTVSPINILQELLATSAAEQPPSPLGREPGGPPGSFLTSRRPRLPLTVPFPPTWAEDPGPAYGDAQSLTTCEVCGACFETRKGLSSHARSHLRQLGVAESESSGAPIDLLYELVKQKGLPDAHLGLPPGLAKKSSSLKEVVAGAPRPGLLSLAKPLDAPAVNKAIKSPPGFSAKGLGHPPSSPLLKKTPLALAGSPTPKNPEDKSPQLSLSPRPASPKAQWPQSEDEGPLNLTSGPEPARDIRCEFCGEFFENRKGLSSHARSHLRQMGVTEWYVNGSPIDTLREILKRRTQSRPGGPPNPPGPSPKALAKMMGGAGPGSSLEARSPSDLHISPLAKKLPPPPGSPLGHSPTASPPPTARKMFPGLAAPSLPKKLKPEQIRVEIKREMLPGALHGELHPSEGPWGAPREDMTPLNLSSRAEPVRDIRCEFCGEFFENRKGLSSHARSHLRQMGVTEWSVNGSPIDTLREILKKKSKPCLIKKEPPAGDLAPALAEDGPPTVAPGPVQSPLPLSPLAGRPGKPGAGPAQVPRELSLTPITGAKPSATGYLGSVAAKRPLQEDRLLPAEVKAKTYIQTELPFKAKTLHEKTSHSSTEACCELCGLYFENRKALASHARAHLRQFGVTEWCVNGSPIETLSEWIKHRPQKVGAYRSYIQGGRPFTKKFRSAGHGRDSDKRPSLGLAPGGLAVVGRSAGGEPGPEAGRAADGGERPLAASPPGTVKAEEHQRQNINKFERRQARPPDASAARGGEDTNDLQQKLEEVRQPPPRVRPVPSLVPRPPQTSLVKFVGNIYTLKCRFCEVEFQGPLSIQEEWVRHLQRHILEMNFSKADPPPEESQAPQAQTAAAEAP
T1 sequence (Q96SW2 whole entry, the tested form may be a part): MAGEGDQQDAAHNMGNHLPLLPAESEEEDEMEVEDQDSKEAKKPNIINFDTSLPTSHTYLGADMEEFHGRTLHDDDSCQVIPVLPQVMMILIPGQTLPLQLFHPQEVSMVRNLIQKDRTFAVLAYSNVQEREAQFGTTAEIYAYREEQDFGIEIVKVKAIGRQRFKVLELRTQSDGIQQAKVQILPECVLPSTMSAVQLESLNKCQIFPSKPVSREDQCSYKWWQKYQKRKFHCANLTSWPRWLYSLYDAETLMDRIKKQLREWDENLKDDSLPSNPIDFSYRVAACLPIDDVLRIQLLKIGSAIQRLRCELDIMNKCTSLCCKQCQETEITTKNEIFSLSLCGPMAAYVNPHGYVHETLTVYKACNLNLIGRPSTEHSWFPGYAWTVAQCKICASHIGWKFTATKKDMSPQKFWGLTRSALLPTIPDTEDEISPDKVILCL
T1 sequence (Q16531 whole entry partner, the tested form may be a part): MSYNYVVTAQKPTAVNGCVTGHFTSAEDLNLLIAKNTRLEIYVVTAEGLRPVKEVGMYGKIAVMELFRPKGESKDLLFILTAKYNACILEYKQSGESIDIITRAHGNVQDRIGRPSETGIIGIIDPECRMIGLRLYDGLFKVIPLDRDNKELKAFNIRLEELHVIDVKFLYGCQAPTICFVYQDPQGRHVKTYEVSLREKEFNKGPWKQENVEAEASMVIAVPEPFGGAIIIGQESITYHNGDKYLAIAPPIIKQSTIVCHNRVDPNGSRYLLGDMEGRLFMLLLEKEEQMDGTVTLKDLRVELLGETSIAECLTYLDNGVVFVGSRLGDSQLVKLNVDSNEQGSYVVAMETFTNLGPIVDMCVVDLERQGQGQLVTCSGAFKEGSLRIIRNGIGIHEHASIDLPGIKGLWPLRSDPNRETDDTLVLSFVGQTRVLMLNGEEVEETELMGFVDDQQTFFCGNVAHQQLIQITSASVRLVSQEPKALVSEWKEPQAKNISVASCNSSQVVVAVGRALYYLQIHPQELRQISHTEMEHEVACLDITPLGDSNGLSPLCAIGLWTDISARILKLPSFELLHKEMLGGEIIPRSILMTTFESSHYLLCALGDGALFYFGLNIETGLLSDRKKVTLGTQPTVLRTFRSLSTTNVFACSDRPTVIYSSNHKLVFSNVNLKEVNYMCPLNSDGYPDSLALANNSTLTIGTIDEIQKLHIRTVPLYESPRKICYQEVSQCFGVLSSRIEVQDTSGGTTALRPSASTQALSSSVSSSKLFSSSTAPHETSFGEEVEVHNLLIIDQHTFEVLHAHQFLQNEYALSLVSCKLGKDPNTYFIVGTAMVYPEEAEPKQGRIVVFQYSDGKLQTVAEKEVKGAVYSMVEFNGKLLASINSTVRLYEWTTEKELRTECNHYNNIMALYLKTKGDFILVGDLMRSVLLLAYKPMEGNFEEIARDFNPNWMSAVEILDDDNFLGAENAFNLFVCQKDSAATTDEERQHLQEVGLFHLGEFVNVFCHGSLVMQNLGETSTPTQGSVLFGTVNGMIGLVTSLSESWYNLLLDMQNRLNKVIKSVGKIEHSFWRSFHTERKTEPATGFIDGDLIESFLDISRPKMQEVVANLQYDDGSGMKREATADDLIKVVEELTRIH

For the compound `O=C1CCN(c2cnn3ccc(CN4CCN5CCOC[C@H]5C4)cc23)C(=O)N1` [Example 263, (R)-1-(5-((hexahydropyrazino[2,1-c][1,4]oxazin-8(1H)-yl)methyl)pyrazolo[1,5-a]pyridin-3-yl)dihydropyrimidine-2,4(1H,3H)-dione], the Dmax at 25 µM was found to be 55%, the remaining activity at 25 µM worked out at 45% and the DC50 came out at 880 nM.

On to `O=C1CCN(c2cnn3ccc(CN4CCN5CCOC[C@@H]5C4)cc23)C(=O)N1` [Example 264, (S)-1-(5-((hexahydropyrazino[2,1-c][1,4]oxazin-8(1H)-yl)methyl)pyrazolo[1,5-a]pyridin-3-yl)dihydropyrimidine-2,4(1H,3H)-dione], for which the Dmax at 25 µM turned out to be 64%, the remaining activity at 25 µM amounted to 36% and the DC50 is 260 nM.

For the compound `CCO[C@H]1CC[C@H](CN2CCC(Cc3ccn4ncc(N5CCC(=O)NC5=O)c4c3)CC2)CC1` [Example 266, 1-(5-((1-(((1r,4r)-4-ethoxycyclohexyl)methyl)piperidin-4-yl)methyl)pyrazolo[1,5-a]pyridin-3-yl)dihydropyrimidine-2,4(1H,3H)-dione], the Dmax at 25 µM turned out to be 81%, the remaining activity at 25 µM turned out to be 19% and the DC50 came to 44 nM.

As for `CC(C)CN1CCC(C(C)c2ccn3ncc(N4CCC(=O)NC4=O)c3c2)CC1` (stereo not drawn) [Example 267, 1-(5-(1-(1-isobutylpiperidin-4-yl)ethyl)pyrazolo[1,5-a]pyridin-3-yl)dihydropyrimidine-2,4(1H,3H)-dione], the Dmax at 25 µM stood at 86%, the remaining activity at 25 µM worked out at 14% and the DC50 is 100 nM.

For `C[C@H]1C[C@H](Cc2ccn3ncc(-n4ccc(=O)[nH]c4=O)c3c2)CCN1CC1CCC(F)(F)CC1` [Example 268, 1-(5-(((2S,4R)-1-((4,4-difluorocyclohexyl)methyl)-2-methylpiperidin-4-yl)methyl)pyrazolo[1,5-a]pyridin-3-yl)pyrimidine-2,4(1H,3H)-dione], the Dmax at 25 µM came to 89%, the remaining activity at 25 µM stood at 11% and the DC50 amounted to 24 nM.

For `O=C1CCN(c2cnn3ccc(CC4CCCNCC4)cc23)C(=O)N1` (stereo not drawn) [Example 269, 1-(5-(azepan-4-ylmethyl)pyrazolo[1,5-a]pyridin-3-yl)dihydropyrimidine-2,4(1H,3H)-dione], the Dmax at 25 µM worked out at 49%, the remaining activity at 25 µM is 51% and the DC50 worked out at 1020 nM.

On to `CC(C)(C)OC(=O)N1CCCC(Cc2ccn3ncc(N4CCC(=O)NC4=O)c3c2)CC1` (stereo not drawn) [Example 270, tert-butyl 4-((3-(2,4-dioxotetrahydropyrimidin-1(2H)-yl)pyrazolo[1,5-a]pyridin-5-yl)methyl)azepane-1-carboxylate], for which the Dmax at 25 µM stood at 57%, the remaining activity at 25 µM was found to be 43% and the DC50 came to 99 nM.

For `CN1CCCC(Cc2ccn3ncc(N4CCC(=O)NC4=O)c3c2)CC1` (stereo not drawn) [Example 271, 1-(5-((1-methylazepan-4-yl)methyl)pyrazolo[1,5-a]pyridin-3-yl)dihydropyrimidine-2,4(1H,3H)-dione], the Dmax at 25 µM came to 63%, the remaining activity at 25 µM came out at 37% and the DC50 was 702 nM.

Consider `O=C1CCN(c2cnn3ccc(CC4CCCN(CC5CCCCC5)CC4)cc23)C(=O)N1` (stereo not drawn) [Example 272, 1-(5-((1-(cyclohexylmethyl)azepan-4-yl)methyl)pyrazolo[1,5-a]pyridin-3-yl)dihydropyrimidine-2,4(1H,3H)-dione], for which the Dmax at 25 µM was found to be 69%, the remaining activity at 25 µM amounted to 31% and the DC50 was determined as 25 nM.

Turning to `C[C@H]1C[C@H](Cc2ccn3ncc(N4CCC(=O)NC4=O)c3c2)CCN1CC(F)(F)C(F)F` [Example 273, 1-(5-(((2S,4R)-2-methyl-1-(2,2,3,3-tetrafluoropropyl)piperidin-4-yl)methyl)pyrazolo[1,5-a]pyridin-3-yl)dihydropyrimidine-2,4(1H,3H)-dione], the Dmax was determined as 78%, the remaining activity worked out at 22% and the DC50 was 40 nM.

`C[C@H]1C[C@H](Cc2ccn3ncc(N4CCC(=O)NC4=O)c3c2)CCN1CC(F)F` [Example 274, 1-(5-(((2S,4R)-1-(2,2-difluoroethyl)-2-methylpiperidin-4-yl)methyl)pyrazolo[1,5-a]pyridin-3-yl)dihydropyrimidine-2,4(1H,3H)-dione]: the Dmax at 25 µM is 77%, the remaining activity at 25 µM was determined as 23% and the DC50 came out at 32 nM.

`C[C@H]1C[C@H](Cc2ccn3ncc(N4CCC(=O)NC4=O)c3c2)CCN1CC(F)(F)F` [Example 275, 1-(5-(((2S,4R)-2-methyl-1-(2,2,2-trifluoroethyl)piperidin-4-yl)methyl)pyrazolo[1,5-a]pyridin-3-yl)dihydropyrimidine-2,4(1H,3H)-dione]: the Dmax at 25 µM is 79%, the remaining activity at 25 µM came to 21% and the DC50 was 20 nM.

Turning to `C[C@H]1C[C@H](Cc2ccn3ncc(N4CCC(=O)NC4=O)c3c2)CCN1CCC(F)(F)F` [Example 276, 1-(5-(((2S,4R)-2-methyl-1-(3,3,3-trifluoropropyl)piperidin-4-yl)methyl)pyrazolo[1,5-a]pyridin-3-yl)dihydropyrimidine-2,4(1H,3H)-dione], the Dmax at 25 µM turned out to be 84%, the remaining activity at 25 µM turned out to be 15% and the DC50 is 9 nM.

In the case of `C[C@H]1C[C@H](Cc2ccn3ncc(N4CCC(=O)NC4=O)c3c2)CCN1CC1CCO1` (stereo partly drawn) [Example 277, 1-(5-(((2S,4R)-2-methyl-1-(oxetan-2-ylmethyl)piperidin-4-yl)methyl)pyrazolo[1,5-a]pyridin-3-yl)dihydropyrimidine-2,4(1H,3H)-dione], the Dmax at 25 µM was 76%, the remaining activity at 25 µM stood at 24% and the DC50 turned out to be 203 nM.

As to `COCC(F)(F)CN1CC[C@@H](Cc2ccn3ncc(N4CCC(=O)NC4=O)c3c2)C[C@@H]1C` [Example 278, 1-(5-(((2S,4R)-1-(2,2-difluoro-3-methoxypropyl)-2-methylpiperidin-4-yl)methyl)pyrazolo[1,5-a]pyridin-3-yl)dihydropyrimidine-2,4(1H,3H)-dione], the Dmax is 72%, the remaining activity was determined as 28% and the DC50 is 66 nM.

As for `C[C@H]1C[C@H](Cc2ccn3ncc(N4CCC(=O)NC4=O)c3c2)CCN1C1COC1` [Example 279, 1-(5-(((2S,4R)-2-methyl-1-(oxetan-3-yl)piperidin-4-yl)methyl)pyrazolo[1,5-a]pyridin-3-yl)dihydropyrimidine-2,4(1H,3H)-dione], the Dmax at 25 µM was found to be 91%, the remaining activity at 25 µM amounted to 9% and the DC50 was 26 nM.

In the case of `C[C@H]1C[C@H](Cc2ccn3ncc(N4CCC(=O)NC4=O)c3c2)CCN1C1CCC1` [Example 280, 1-(5-(((2S,4R)-1-cyclobutyl-2-methylpiperidin-4-yl)methyl)pyrazolo[1,5-a]pyridin-3-yl)dihydropyrimidine-2,4(1H,3H)-dione], the Dmax at 25 µM stood at 88%, the remaining activity at 25 µM is 12% and the DC50 amounted to 8 nM.

Turning to `O=C1CCN(c2cnn3ccc(CC4CCN(C5COC5)CC4)cc23)C(=O)N1` [Example 281, 1-(5-((1-(oxetan-3-yl)piperidin-4-yl)methyl)pyrazolo[1,5-a]pyridin-3-yl)dihydropyrimidine-2,4(1H,3H)-dione], the Dmax at 25 µM worked out at 83%, the remaining activity at 25 µM was determined as 17% and the DC50 is 4 nM.

Take `O=C1CCN(c2cnn3ccc(CC4CCN(C5CCC5)CC4)cc23)C(=O)N1` [Example 282, 1-(5-((1-cyclobutylpiperidin-4-yl)methyl)pyrazolo[1,5-a]pyridin-3-yl)dihydropyrimidine-2,4(1H,3H)-dione]: the Dmax at 25 µM came out at 81%, the remaining activity at 25 µM is 19% and the DC50 was found to be 1 nM.

`C[C@H]1C[C@H](Cc2ccn3ncc(N4CCC(=O)NC4=O)c3c2)CCN1S(C)(=O)=O` [Example 284]: the Dmax at 25 µM was determined as 80%, the remaining activity at 25 µM came to 20% and the DC50 stood at 18 nM.

Regarding `C[C@H]1C[C@H](Cc2ccn3ncc(N4CCC(=O)NC4=O)c3c2)CCN1S(=O)(=O)C1CC1` [Example 286], the Dmax at 25 µM turned out to be 79%, the remaining activity at 25 µM was found to be 20% and the DC50 was 31 nM.

Consider `CC(C)C(=O)N1CC[C@@H](Cc2ccn3ncc(N4CCC(=O)NC4=O)c3c2)C[C@@H]1C` [Example 288], for which the Dmax at 25 µM was 80%, the remaining activity at 25 µM came to 20% and the DC50 is 8 nM.

With `C[C@H]1C[C@H](Cc2ccn3ncc(N4CCC(=O)NC4=O)c3c2)CCN1C(=O)C1CCC1` [Example 289], the Dmax at 25 µM came out at 79%, the remaining activity at 25 µM was 21% and the DC50 worked out at 33 nM.

As for `C[C@H]1C[C@H](Cc2ccn3ncc(N4CCC(=O)NC4=O)c3c2)CCN1C(=O)C1CCN(C)CC1` [Example 290], the Dmax at 25 µM amounted to 54%, the remaining activity at 25 µM worked out at 46% and the DC50 stood at 1700 nM.

Turning to `C[C@H]1C[C@H](Cc2ccn3ncc(N4CCC(=O)NC4=O)c3c2)CCN1S(=O)(=O)N1CCCC1` [Example 291, 1-(5-(((2S,4R)-2-methyl-1-(pyrrolidin-1-ylsulfonyl)piperidin-4-yl)methyl)pyrazolo[1,5-a]pyridin-3-yl)dihydropyrimidine-2,4(1H,3H)-dione], the Dmax at 25 µM is 83%, the remaining activity at 25 µM was determined as 17% and the DC50 stood at 15 nM.
